Assay [1] addresses T1, RORγ ligand binding domain (LBD) (Homo sapiens, UniProt P51449).
T1 construct: made in house; host or cells: E. coli BL-21 (BL3), vector pDEST15
T1 sequence (P51449 269-508 limits assumed): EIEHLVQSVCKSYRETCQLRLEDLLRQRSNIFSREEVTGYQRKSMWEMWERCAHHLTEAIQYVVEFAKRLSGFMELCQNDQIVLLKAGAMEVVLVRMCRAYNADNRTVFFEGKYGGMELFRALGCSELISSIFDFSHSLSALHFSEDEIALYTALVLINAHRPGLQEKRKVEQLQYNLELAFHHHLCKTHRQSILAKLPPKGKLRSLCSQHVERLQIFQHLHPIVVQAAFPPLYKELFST
The assay is described as follows: TR-FRET Activity Assay (ligand sensing assay, RORγ-LBD / coactivator peptide interaction). The class given is biochemical. The method in brief: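 GST-RORγ LBD expressed in bacteria, 20–60 ng/well, with biotinylated coactivator peptide 200–600 nM, streptavidin-APC and Eu-anti-GST. Buffer: 20 mM Tris-HCl pH 6.8, 60 mM KCl, 1 mM DTT, 5 mM MgCl2, BSA; 1% DMSO. LANCE TR-FRET 665/615 nm ratio; IC50 from four-parameter logistic fit.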

The target of the next assay is T2, RORγ (UniProt P51449).
T2 construct: hRORg-LBD|aa259-518|NP_005051.2; hRORgt|aa1-497|NP_001001523 (RORg, t isoform, 497aa); mRORg-LBD|aa264-516|NP_035411
T2 sequence (P51449 1-518): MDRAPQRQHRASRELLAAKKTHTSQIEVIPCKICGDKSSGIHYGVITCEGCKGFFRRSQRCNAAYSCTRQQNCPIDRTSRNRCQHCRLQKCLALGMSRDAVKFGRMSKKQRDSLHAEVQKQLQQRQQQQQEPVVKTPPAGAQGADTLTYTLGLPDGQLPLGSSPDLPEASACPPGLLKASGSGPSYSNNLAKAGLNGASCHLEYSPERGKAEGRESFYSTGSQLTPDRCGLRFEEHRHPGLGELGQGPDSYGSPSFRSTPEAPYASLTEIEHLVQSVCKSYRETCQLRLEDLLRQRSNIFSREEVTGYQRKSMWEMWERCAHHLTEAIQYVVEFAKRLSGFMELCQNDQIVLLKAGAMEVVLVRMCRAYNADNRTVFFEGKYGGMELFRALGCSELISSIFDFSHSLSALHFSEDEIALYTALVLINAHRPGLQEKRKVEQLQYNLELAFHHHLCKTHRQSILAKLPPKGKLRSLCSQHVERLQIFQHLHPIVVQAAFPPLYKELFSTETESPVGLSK
The class given is cell-based. The following applies: 293T cells, 16 h; for pIC50 (FF): firefly (FF) luciferase; for pIC50 (REN): renilla normalised (RENnorm) luciferase.

Take `CC(C)(C)c1cc(-n2nc(C(=O)NCc3ccn[nH]3)c(Cl)c2CC2CCCCC2)cc(C(C)(C)C)c1` [103/8]: in assay [1], the concentration for half-maximal inhibition (IC50) is 0.794 µM. Further, at RORγ, the “pIC50 (FF)” value is less than 4.7 and the “pIC50 (REN)” value was less than 4.7.

As to `CC(C)(C)NS(=O)(=O)c1ccc(-c2nc(C(=O)N[C@H]3C[C@H](C(=O)O)C3)nn2CC2CCCCC2)cc1C(C)(C)C` [308/10], the IC50 in assay [1] was 6.31 µM. Also, on RORγ, the “pIC50 (FF)” value is given as less than 4.7 and the “pIC50 (REN)” value was less than 4.7.

The compound `Cc1c(C(=O)NC2CCOCC2)cc(-c2ccc(S(=O)(=O)NC(C)(C)C)c(C(F)(F)F)c2)n1CC1CCOC1` (stereo not drawn) [302/4] gave an IC50 in assay [1] of 3.98 µM. On RORγ, the “pIC50 (FF)” value is less than 4.7 and the “pIC50 (REN)” value is reported as less than 4.7.

In assay [1], `Cn1c(C(=O)N[C@H]2C[C@H](C(=O)O)C2)cc(-c2cc(C(C)(C)C)cc(C3(C)CC3)c2)c1CC1CCCCC1` [Example 8, (trans)-3-(4-(3-(tert-BUTYL)-5-(1-methylcyclopropyl)phenyl)-5-(cyclohexylmethyl)-1-methyl-1H-pyrrole-2-carboxamido)cyclobutanecarboxylic acid] had an IC50 of 1 µM. On RORγ, the “pIC50 (FF)” value was 7.6 and the “pIC50 (REN)” value is listed as 7.7.

In assay [1], `Cc1c(C(=O)NC2CCOCC2)cc(-c2ccc(S(=O)(=O)NC(C)(C)C)c(C(F)(F)F)c2)n1CC1CCCOC1` (stereo not drawn) [302/5] gave an IC50 of 0.794 µM. For the same compound, at RORγ, the “pIC50 (FF)” value was 6.2 and the “pIC50 (REN)” value is reported as 6.3.

`CC(C)(C)NS(=O)(=O)c1ccc(-c2cc(C(=O)NC34CCC(C(=O)O)(CC3)CC4)nn2CC2CCCCC2)c(Cl)c1Cl` [112/2]: the IC50 in assay [1] is 0.794 µM. Besides, at RORγ, the “pIC50 (FF)” value came to 6.9 and the “pIC50 (REN)” value came to 7.0.

With `Cc1cc(-c2nc(C(N)=O)nn2CC2CCCCC2)cc(C(C)(C)C)c1O` [Example 308, 5-(3-(tert-Butyl)-4-hydroxy-5-methylphenyl)-1-(cyclohexylmethyl)-1H-1,2,4-triazole-3-carboxamide], the IC50 in assay [1] is 7.94 µM. Further, on RORγ, the “pIC50 (FF)” value was 6.0 and the “pIC50 (REN)” value is on record as 5.9.

Consider `Cn1c(C(=O)N[C@H]2CC[C@H](C(=O)O)CC2)cc(-c2cc(C(C)(C)C)cc(C3(C)CC3)c2)c1CC1CCCCC1` [8/11], for which the IC50 in assay [1] is 1.26 µM. Also, at RORγ, the “pIC50 (FF)” value is given as 7.3 and the “pIC50 (REN)” value is given as 7.4.

Compound `COC(C)(C)c1cc(-n2nc(C(=O)NC3COC3)c(Cl)c2CC2CCCCC2)cc(C(C)(C)C)c1` [104/4] had a half-inhibitory concentration (IC50) in assay [1] of 0.631 µM. In addition, on RORγ, the “pIC50 (FF)” value is on record as 6.6 and the “pIC50 (REN)” value amounted to 6.6.

In assay [1], `CC(C)(C)c1cc(-c2cc(C(N)=O)[nH]c2CC2CCCCC2)cc(C(C)(C)C)c1` [Example 303, 5-(Cyclohexylmethyl)-4-(3,5-di-tert-butylphenyl)-1H-pyrrole-2-carboxamide] showed an IC50 of 0.501 µM. For the same compound, on RORγ, the “pIC50 (FF)” value is listed as less than 4.7 and the “pIC50 (REN)” value is less than 4.7.

`CC(C)(C)c1cc(-n2nc(C(N)=O)c(Cl)c2CC2CCCCC2)cc(C(C)(C)C)n1` [Example 315, 4-Chloro-5-(cyclohexylmethyl)-1-(2,6-di-tert-butylpyridin-4-yl)-1H-pyrazole-3-carboxamide] gave a concentration for half-maximal inhibition (IC50) in assay [1] of 0.126 µM. Besides, on RORγ, the “pIC50 (FF)” value is given as 6.7 and the “pIC50 (REN)” value is listed as 6.7.

For `CC(C)(C)c1cc(-c2[nH]c(C(=O)NC3CCOCC3)cc2CC2CCCCC2)cc(C2(C)CC2)c1` [Example 12, 5-(3-(tert-Butyl)-5-(1-methylcyclopropyl)phenyl)-4-(cyclohexylmethyl)-N-(tetrahydro-2H-pyran-4-yl)-1H-pyrrole-2-carboxamide], in assay [1], the IC50 is 1 µM. For the same compound, at RORγ, the “pIC50 (FF)” value is on record as 6.9 and the “pIC50 (REN)” value came to 6.8.

Turning to `CC(C)(C)c1cc(-n2nc(C(=O)NS(C)(=O)=O)cc2CC2CCCCC2)cc(C(C)(C)C)c1` [Example 312/1], the IC50 in assay [1] was 6.31 µM. Besides, at RORγ, the “pIC50 (FF)” value is on record as less than 4.7 and the “pIC50 (REN)” value is given as less than 4.7.

The compound `CC(C)(C)c1cc(-c2nc(C(=O)NC3CC3)nn2CC2CCCCC2)cc(C(C)(C)C)c1` [Example 307, 1-(Cyclohexylmethyl)-N-cyclopropyl-5-(3,5-di-tert-butylphenyl)-1H-1,2,4-triazole-3-carboxamide] had an IC50 in assay [1] of 0.794 µM. Also, at RORγ, the “pIC50 (FF)” value is given as 5.9 and the “pIC50 (REN)” value is reported as 6.1.

Turning to `CC(C)(C)c1cc(-c2nc(C(=O)NC3CC3)nn2CC2CCCCC2)cc(C(C)(C)C)c1O` [308/2], the IC50 in assay [1] stood at 0.631 µM. At RORγ, the “pIC50 (FF)” value came out at 6.2 and the “pIC50 (REN)” value came to 6.3.

In turn, `Cc1c(C(=O)NCCC(C)(C)C(=O)O)c(F)n(-c2ccc(S(=O)(=O)NC(C)(C)C)c(C(F)(F)F)c2)c1CC1CCCCC1` [Example 25, 4-(1-(4-(N-(tert-Butyl)sulfamoyl)-3-(trifluoromethyl)phenyl)-5-(cyclohexylmethyl)-2-fluoro-4-methyl-1H-pyrrole-3-carboxamido)-2,2-dimethylbutanoic acid] showed an IC50 in assay [1] of 0.631 µM. Moreover, at RORγ, the “pIC50 (FF)” value was 8.3 and the “pIC50 (REN)” value is reported as 8.3.

In the case of `Cn1c(C(=O)N[C@H]2C[C@H](C(=O)O)C2)c(Cl)c(CC2CCCCC2)c1-c1cc(C(C)(C)C)cc(C2(C)CC2)c1` [Example 18/1], the half-maximal inhibitory concentration (IC50) in assay [1] was 0.794 µM. In addition, on RORγ, the “pIC50 (FF)” value was found to be 6.6 and the “pIC50 (REN)” value stood at 6.7.

In the case of `CC(C)(C)NS(=O)(=O)c1ccc(-c2cc(C(=O)N[C@H]3C[C@H](C(=O)O)C3)nn2CC2CCCCC2)cc1C(C)(C)C` [100/3], the IC50 in assay [1] is 0.794 µM. For the same compound, at RORγ, the “pIC50 (FF)” value is 7.0 and the “pIC50 (REN)” value came out at 7.1.

The compound `Cc1c(C(=O)NC2CCOCC2)cn(-c2cc(C(C)(C)C)cc(C3(C)CC3)c2)c1C(=O)N1CCCCC1` [Example 13, 1-(3-(tert-Butyl)-5-(1-methylcyclopropyl)phenyl)-4-methyl-5-(piperidine-1-carbonyl)-N-(tetrahydro-2H-pyran-4-yl)-1H-pyrrole-3-carboxamide] gave an IC50 in assay [1] of 1 µM. At RORγ, the “pIC50 (FF)” value amounted to 7.1 and the “pIC50 (REN)” value is 7.1.

Take `Cc1c(C(=O)N[C@H]2C[C@H](C(=O)O)C2)cn(-c2cc(C(C)(C)C)cc(C3(C)CC3)c2)c1S(=O)(=O)C1CCCCC1` [Example 23, trans-3-(1-(3-(tert-Butyl)-5-(1-methylcyclopropyl)phenyl)-5-(cyclohexylsulfonyl)-4-methyl-1H-pyrrole-3-carboxamido)cyclobutanecarboxylic acid]: in assay [1], the IC50 was 1.58 µM. Besides, at RORγ, the “pIC50 (FF)” value came out at 6.4 and the “pIC50 (REN)” value is listed as 6.5.

In the case of `CC(C)(C)c1cc(-n2nc(C(N)=O)cc2CC2CCCCC2)cc(C(C)(C)C)c1` [Example 312, 5-(Cyclohexylmethyl)-1-(3,5-di-tert-butylphenyl)-1H-pyrazole-3-carboxamide], the IC50 in assay [1] was 0.251 µM. Moreover, on RORγ, the “pIC50 (FF)” value is 6.2 and the “pIC50 (REN)” value is listed as 6.3.

In assay [1], `CC(C)(C)c1cc(-c2nc(C(=O)NC3CCOCC3)nn2CC2CCCCC2)cc(C(C)(C)C)c1O` [308/4] had an IC50 of 1 µM. Moreover, at RORγ, the “pIC50 (FF)” value was determined as 6.3 and the “pIC50 (REN)” value was found to be 6.4.

The compound `CC(C)(C)c1cc(-c2[nH]c(C(=O)N[C@H]3C[C@H](C(=O)O)C3)cc2CC2CCCCC2)cc(C2(C)CC2)c1` [Example 12/2] showed an IC50 in assay [1] of 1.26 µM. Moreover, on RORγ, the “pIC50 (FF)” value was 6.6 and the “pIC50 (REN)” value is reported as 6.6.

The compound `CC(C)(C)NS(=O)(=O)c1ccc(-c2cc(C(=O)N[C@H]3C[C@H](C(=O)O)C3)nn2CC2CCCCC2)cc1C(F)(F)F` [100/6] gave an IC50 in assay [1] of 0.316 µM. Also, on RORγ, the “pIC50 (FF)” value is recorded as 6.3 and the “pIC50 (REN)” value is recorded as 6.3.

For `CC(C)(C)NS(=O)(=O)c1ccc(-c2nc(C(=O)NC3CCOCC3)nn2CC2CCCCC2)cc1C(C)(C)C` [308/9], the IC50 in assay [1] is 7.94 µM. For the same compound, on RORγ, the “pIC50 (FF)” value is given as 5.6 and the “pIC50 (REN)” value came to 5.6.

Regarding `C[C@H](O)CNC(=O)c1nc(-c2cc(C(C)(C)C)c(O)c(C(C)(C)C)c2)n(CC2CCCCC2)n1` [308/8], in assay [1], the IC50 is 1.58 µM. In addition, at RORγ, the “pIC50 (FF)” value is on record as 6.2 and the “pIC50 (REN)” value amounted to 6.3.

`CC(C)(C)c1cc(-n2nc(C(=O)NC3CCOCC3)c(Cl)c2CC2CCCCC2)cc(C(C)(C)C)c1` [103/2]: the IC50 in assay [1] was 0.316 µM. Further, at RORγ, the “pIC50 (FF)” value was determined as 6.3 and the “pIC50 (REN)” value stood at 6.4.

The record behind these values is US9458104B2 (priority 2012, dated 2016).
